Data as given in patent US20060040894A1, “Compositions and methods using hyaluronic acid” (Angiotech International AG, priority 2004, published 2006).

System: hyaluronidase
Assay: Hyaluronic Acid Viscometry Assay (degradation of HA by hyaluronidase)
Type: biochemical
Text: The time for the sample to run through the viscometer was proportional to the viscosity of HA in the sample, which, in turn, was proportional to the molecular weight of the HA. As the enzyme (hyaluronidase) breaks down HA, the molecular weight of the polymer is reduced, the viscosity of the solution drops, and the solution runs through the viscometer more rapidly. Accordingly, shorter run times indicated lower molecular weights of HA (i.e., more breakdown of the HA by hyaluronidase), whereas longer times indicated higher molecular weights of HA (i.e., less breakdown of the HA by hyaluronidase).
0.07% HA solutions were prepared as follows: […] and […] pH 5.5 phosphate buffer (1 M) were combined in a scintillation vial. […] The solutions were allowed to dissolve overnight at 37° C. The pH's were checked and adjusted to 6.0. The viscosity of the solutions was analyzed by measuring the run time through an Ubbelohde PC1 viscometer. 50 μl of hyaluronidase (4.2 mg in 620 ul of water) was added per vial (final concentration approximately 6 units/ml) and incubated overnight with shaking. A viscometer reading was recorded for each solution after overnight incubation.

[1] = 10 mg/ml, without enzyme (Example 4)

Row | Time (minutes) for sample to run through viscometer (0 mg/ml (so in the source), with enzyme (Example 4)) [min] | Degradation of HA (% viscosity relative to control t = 0) (10 mg/ml, with hyaluronidase (Example 2)) [%] | Time (minutes) for sample to run through viscometer [1] [min] | Effect on hyaluronidase (viscosity of HA solution versus enzyme control) (Example 2, concentrations of Table 2) | Effect on hyaluronidase (viscosity of HA solution versus enzyme control) (Example 4, 10 mg/ml) | Time (minutes) for sample to run through viscometer (10 mg/ml, with enzyme (Example 4)) [min] | Compound
1 | 5 | 65 | 5.85 | inhibit the action of hyaluronidase | inhibit the action of hyaluronidase | – | CC(O)CO (centres unmarked) [Propylene glycol]
2 | – | – | 5.5 | – | inhibit the action of hyaluronidase | 4.36 | SPAN 80
